Results: patent US7432302B2, “Composition containing polyamine transport inhibitor and use thereof” (MediQuest Therapeutics, Inc., priority 2001, dated 2008)
Read-outs that look alike come from different tables or passages of the source.

Experiments:
[1] = system: epidermal ornithine decarboxylase activity; conditions: mice, 0.5% BHT in food for two weeks, UV radiation; cited from earlier work
[2] = system: cell growth in the presence of DFMO; assay: Growth inhibition assay in combination with DFMO; type: cell-based; conditions: for EC50: 144 h; on Ave EC50 Value: 0.5 µM SPD
Description: Medias were obtained from Mediatech, Inc. (Hemdon, Va.) and serums from Gibco BRL (Gaithersburg, Md.). 50 U/ml penicillin, 50 μg/ml streptomycin and 2 mM L-glutamine (all from Bio Whittaker, Walkersville, Md.) were included in all cultures. […] When cells were cultured with polyamines or ORI compounds, 1 mM aminoguanidine (AG; Sigma) was included to inhibit serum amine oxidase activity.

polyamine transporter = assay: Polyamine transport inhibition (3H-spermidine uptake, MDA-MB-231 cells); type: cell-based, human
Description: The Ki values were determined using double reciprocal Lineweaver-Burke plot analyses.

spermine synthase = biological target: T1, spermine synthase (Homo sapiens, UniProt P52788); conditions: cited from earlier work
T1 sequence (P52788 1-366): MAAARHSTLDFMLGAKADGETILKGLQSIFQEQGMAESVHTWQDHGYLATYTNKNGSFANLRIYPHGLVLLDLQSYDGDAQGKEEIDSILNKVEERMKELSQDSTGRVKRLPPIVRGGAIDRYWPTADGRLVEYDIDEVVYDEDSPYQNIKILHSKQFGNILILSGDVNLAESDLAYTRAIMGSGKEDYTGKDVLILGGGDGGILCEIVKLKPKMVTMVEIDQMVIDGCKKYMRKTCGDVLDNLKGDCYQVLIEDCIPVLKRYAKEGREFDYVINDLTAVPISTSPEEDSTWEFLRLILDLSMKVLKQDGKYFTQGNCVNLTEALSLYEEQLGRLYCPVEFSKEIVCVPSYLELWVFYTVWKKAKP

cultured follicles = conditions: in culture media: DFMO 500 μM; N-butyl-1,3-diaminopropane 50 μM; cited from earlier work
ODC activity = conditions: at 4 to 5 hr after TPA treatment; cited from earlier work
ODC = biological target: T2, ODC (Rattus norvegicus, UniProt P09057); conditions: cited from earlier work
T2 construct: from tissue; host or cells: rat liver
T2 sequence (P09057 1-461): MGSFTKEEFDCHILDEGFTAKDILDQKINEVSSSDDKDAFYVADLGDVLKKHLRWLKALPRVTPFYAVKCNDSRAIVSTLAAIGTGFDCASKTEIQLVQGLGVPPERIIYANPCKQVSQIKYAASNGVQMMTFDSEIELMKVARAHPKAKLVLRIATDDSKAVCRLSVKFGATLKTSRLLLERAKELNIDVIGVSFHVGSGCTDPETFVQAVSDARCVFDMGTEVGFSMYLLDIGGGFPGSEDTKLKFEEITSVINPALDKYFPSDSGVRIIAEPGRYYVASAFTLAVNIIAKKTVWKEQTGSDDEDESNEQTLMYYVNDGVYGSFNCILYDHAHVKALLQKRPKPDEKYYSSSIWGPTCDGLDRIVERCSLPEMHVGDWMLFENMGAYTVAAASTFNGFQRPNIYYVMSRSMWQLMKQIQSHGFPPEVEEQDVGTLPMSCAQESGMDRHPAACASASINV

SMILES: Cc1cc(C(C)(C)C)c(O)c(C(C)(C)C)c1 [BHT, butylated hydroxytoluene]
- inhibition of measured ODC activity [1]: 70%

SMILES: CCCCCCCCCCCCCCCC(=O)NCCCC[C@H](N)C(=O)NCCCNCCCCNCCCN [IA4]
- potency in cell growth inhibition assay [2]: demonstrated potency
- EC50 ([2]; read-out: Ave EC50 Value): 0.13 µM
- EC50 ([2]; read-out: Ave EC50 value): 0.13 µM
- potency in transporter inhibition assay (polyamine transporter): demonstrated potency

SMILES: CCCCNCCCN [N-butyl-1,3-diaminopropane]
- Ki (spermine synthase): 0.0119 µM
- effect on the growth of cultured follicles (cultured follicles): no effect

SMILES: CCCCCCCCCCCCCC(=O)O[C@@H]1[C@@H](C)[C@@]2(O)[C@@H](C=C(CO)C[C@]3(O)C(=O)C(C)=C[C@@H]23)[C@@H]2C(C)(C)[C@]12OC(C)=O [TPA, 12-O-tetradecanoyl-phorbol-13-acetate]
- peak ODC activity greater than control (ODC activity): 230 fold

SMILES: NCCCC(N)(CCl)C(=O)O (stereo not shown) [—CH2Cl]
- t1/2 (ODC; Table 1, at 100 μM): t1/2 = 22 min
- Ki value (ODC; Table 1 substrate analogs, apparent dissociation constant, rat liver enzyme): No satd kinetics
